# Tests used:
# Assay in all cases: minimum inhibitory concentration, agar dilution assay
# Type in all cases: cell-based
# [1] = system: Klebsiella pneumoniae K-13; conditions: K13, agar dilution, 35° C., 20 hours, read-out: minimum inhibitory concentration
# Method: (§1) The antibiotic activities shown in Tables I-1 to I-8 above were determined in the following manner.
# (§2) The minimum inhibitory concentrations of the compounds of formula (I-a-1) or (I-b-1) in Tables I-1 to I-7 and the known compounds in Table I-8 on the various microorganisms shown in the above tables were measured by an agar dilution assay method using a brain heart infusion agar medium "Difco" (a product of Difco Laboratories Inc.)
# (§3) A sample of the test compound was dissolved in sterile distilled water and diluted to prepare a two-fold dilution series of the compound solution. In a petri plate of 9 cm diameter, 1 ml of the compound solution was added to 9 ml of molten sterile heart infusion agar medium (Difco Laboratories Inc.) at about 60° C. to prepare the compound-containing agar plate. An overnight culture of each test organism indicated in the above table which was prepared by stationary cultivation in Trypto-Soy broth (Eiken Chemi. Co., Ltd.) at 35° C. for 18 to 20 hours, was diluted with the Trypto-Soy broth to give approximately 10^8 cells/ml and the diluted inoculum was inoculated onto the compound-containing agar plates. After cultivating the plates at 35° C. for 20 hours, the growth of the organism was observed. The minimum concentration of the compound at which no growth of the microorganism was noted was determined, and defined as the minimum inhibitory concentration of the test compound.
# [2] = system: Staphylococcus aureus Smith; conditions: agar dilution, 35° C., 20 hours, read-out: minimum inhibitory concentration
# Method: as §1, §2, §3
# [3] = system: Pseudomonas aeruginosa NCTC10490; conditions: NCTC10490, agar dilution, 35° C., 20 hours, read-out: minimum inhibitory concentration
# Method: as §1, §2, §3
# Proteus rettgeri P7 = conditions: Providencia rettgeri, P7; agar dilution, 35° C., 20 hours; read-out: minimum inhibitory concentration
# Method: as §1, §2, §3
# Proteus vulgaris GN76 = conditions: GN76, agar dilution, 35° C., 20 hours, read-out: minimum inhibitory concentration
# Method: as §1, §2, §3
# [4] = system: Pseudomonas aeruginosa IFO3445; conditions: IFO3445, agar dilution, 35° C., 20 hours, read-out: minimum inhibitory concentration
# Method: as §1, §2, §3
# Serratia marcescens S18 = conditions: S18, agar dilution, 35° C., 20 hours, read-out: minimum inhibitory concentration
# Method: as §1, §2, §3
# [5] = system: Staphylococcus aureus FDA 209P; conditions: FDA209P, agar dilution, 35° C., 20 hours, read-out: minimum inhibitory concentration
# Method: as §1, §2, §3
# [6] = system: Enterobacter aerogenes E19; conditions: Klebsiella aerogenes, E19; agar dilution, 35° C., 20 hours; read-out: minimum inhibitory concentration
# Method: as §1, §2, §3
# Enterobacter cloacae 45 = conditions: Enterobacter cloacae, 45; agar dilution, 35° C., 20 hours; read-out: minimum inhibitory concentration
# Method: as §1, §2, §3
# Alcaligenes faecalis A 1 = conditions: A1, agar dilution, 35° C., 20 hours, read-out: minimum inhibitory concentration
# Method: as §1, §2, §3
# [7] = system: Bacillus subtilis ATCC 6633; conditions: ATCC6633, agar dilution, 35° C., 20 hours, read-out: minimum inhibitory concentration
# Method: as §1, §2, §3
# Serratia marcescens T55 = conditions: T55, agar dilution, 35° C., 20 hours, read-out: minimum inhibitory concentration
# Method: as §1, §2, §3
# [8] = system: Staphylococcus aureus Russell; conditions: agar dilution, 35° C., 20 hours, read-out: minimum inhibitory concentration
# Method: as §1, §2, §3
# Escherichia coli RGN 823 = conditions: RGN823, agar dilution, 35° C., 20 hours, read-out: minimum inhibitory concentration
# Method: as §1, §2, §3
# [9] = system: Comamonas terrigena B-996; conditions: B996, agar dilution, 35° C., 20 hours, read-out: minimum inhibitory concentration
# Method: as §1, §2, §3
# Escherichia coli K-12 = conditions: K12, agar dilution, 35° C., 20 hours, read-out: minimum inhibitory concentration
# Method: as §1, §2, §3
# [10] = system: Citrobacter freundii GN 346; conditions: GN346, agar dilution, 35° C., 20 hours, read-out: minimum inhibitory concentration
# Method: as §1, §2, §3
# Proteus mirabilis P6 = conditions: P6, agar dilution, 35° C., 20 hours, read-out: minimum inhibitory concentration
# Method: as §1, §2, §3
# Proteus sp. P22 = conditions: agar dilution, 35° C., 20 hours; read-out: minimum inhibitory concentration
# Method: as §1, §2, §3
# Providencia sp. P8 = conditions: SP.P8, agar dilution, 35° C., 20 hours, read-out: minimum inhibitory concentration
# Method: as §1, §2, §3
# Sarcina lutea = conditions: Micrococcus luteus; agar dilution, 35° C., 20 hours; read-out: minimum inhibitory concentration
# Method: as §1, §2, §3
# Enterobacter sp. E8 = conditions: SP.E8, agar dilution, 35° C., 20 hours, read-out: minimum inhibitory concentration
# Method: as §1, §2, §3
# [11] = system: Staphylococcus epidermidis; conditions: agar dilution, 35° C., 20 hours, read-out: minimum inhibitory concentration
# Method: as §1, §2, §3
compound,measurement,setting,value
CC(O)[C@H]1C(=O)N2C(C(=O)O)=C(SC3CCCCC3)C[C@H]12 (stereo partly drawn),MIC,[1],> 100 µg/mL
same,MIC,[2],0.39 µg/mL
same,MIC,[3],25 µg/mL
same,MIC,Proteus rettgeri P7,> 100 µg/mL
same,MIC,Proteus vulgaris GN76,> 100 µg/mL
same,MIC,[4],> 100 µg/mL
same,MIC,Serratia marcescens S18,> 100 µg/mL
same,MIC,[5],0.05 µg/mL
same,MIC,[6],> 100 µg/mL
same,MIC,Enterobacter cloacae 45,> 100 µg/mL
same,MIC,Alcaligenes faecalis A 1,25 µg/mL
same,MIC,[7],6.25 µg/mL
same,MIC,Serratia marcescens T55,> 100 µg/mL
same,MIC,[8],0.2 µg/mL
same,MIC,Escherichia coli RGN 823,> 100 µg/mL
same,MIC,[9],0.05 µg/mL
same,MIC,Escherichia coli K-12,> 100 µg/mL
same,MIC,[10],> 100 µg/mL
same,MIC,Proteus mirabilis P6,100 µg/mL
same,MIC,Proteus sp. P22,> 100 µg/mL
same,MIC,Providencia sp. P8,> 100 µg/mL
same,MIC,Sarcina lutea,0.05 µg/mL
same,MIC,Enterobacter sp. E8,> 100 µg/mL
same,MIC,[11],0.39 µg/mL
CC(O)C1C(=O)N2C(C(=O)O)=C(SC3CCCCC3)CC12 (stereo not drawn),MIC,[1],> 100 µg/mL
same,MIC,[2],0.05 µg/mL
same,MIC,[3],50 µg/mL
same,MIC,Proteus rettgeri P7,100 µg/mL
same,MIC,Proteus vulgaris GN76,> 100 µg/mL
same,MIC,[4],> 100 µg/mL
same,MIC,Serratia marcescens S18,> 100 µg/mL
same,MIC,[5],0.013 µg/mL
same,MIC,[6],50 µg/mL
same,MIC,Enterobacter cloacae 45,50 µg/mL
same,MIC,Alcaligenes faecalis A 1,1.56 µg/mL
same,MIC,[7],0.013 µg/mL
same,MIC,Serratia marcescens T55,> 100 µg/mL
same,MIC,[8],0.013 µg/mL
same,MIC,Escherichia coli RGN 823,100 µg/mL
same,MIC,[9],< 0.007 µg/mL
same,MIC,Escherichia coli K-12,12.5 µg/mL
same,MIC,[10],100 µg/mL
same,MIC,Proteus mirabilis P6,6.25 µg/mL
same,MIC,Proteus sp. P22,> 100 µg/mL
same,MIC,Providencia sp. P8,25 µg/mL
same,MIC,Sarcina lutea,< 0.007 µg/mL
same,MIC,Enterobacter sp. E8,12.5 µg/mL
same,MIC,[11],0.05 µg/mL
CC(C)C1C(=O)N2C(C(=O)O)=C(Sc3ccccc3)CC12 (stereo not drawn),MIC,[1],> 100 µg/mL
same,MIC,[2],0.2 µg/mL
same,MIC,[3],6.25 µg/mL
same,MIC,Proteus rettgeri P7,100 µg/mL
same,MIC,Proteus vulgaris GN76,> 100 µg/mL
same,MIC,[4],25 µg/mL
same,MIC,Serratia marcescens S18,> 100 µg/mL
same,MIC,[5],0.013 µg/mL
same,MIC,[6],> 100 µg/mL
same,MIC,Enterobacter cloacae 45,> 100 µg/mL
same,MIC,Alcaligenes faecalis A 1,6.25 µg/mL
same,MIC,[7],0.1 µg/mL
same,MIC,Serratia marcescens T55,> 100 µg/mL
same,MIC,[8],0.025 µg/mL
same,MIC,Escherichia coli RGN 823,50 µg/mL
same,MIC,[9],0.007 µg/mL
same,MIC,Escherichia coli K-12,50 µg/mL
same,MIC,[10],> 100 µg/mL
same,MIC,Proteus mirabilis P6,> 100 µg/mL
same,MIC,Proteus sp. P22,100 µg/mL
same,MIC,Providencia sp. P8,25 µg/mL
same,MIC,Sarcina lutea,0.013 µg/mL
same,MIC,Enterobacter sp. E8,> 100 µg/mL
same,MIC,[11],0.025 µg/mL
CC(O)[C@H]1C(=O)N2C(C(=O)O)=C(Sc3ccccc3)C[C@H]12 (stereo partly drawn),MIC,[1],> 100 µg/mL
same,MIC,[2],1.56 µg/mL
same,MIC,[3],6.25 µg/mL
same,MIC,Proteus rettgeri P7,> 100 µg/mL
same,MIC,Proteus vulgaris GN76,> 100 µg/mL
same,MIC,[4],25 µg/mL
same,MIC,Serratia marcescens S18,> 100 µg/mL
same,MIC,[5],0.05 µg/mL
same,MIC,[6],> 100 µg/mL
same,MIC,Enterobacter cloacae 45,> 100 µg/mL
same,MIC,Alcaligenes faecalis A 1,25 µg/mL
same,MIC,[7],6.25 µg/mL
same,MIC,Serratia marcescens T55,> 100 µg/mL
same,MIC,[8],0.78 µg/mL
same,MIC,Escherichia coli RGN 823,50 µg/mL
same,MIC,[9],0.05 µg/mL
same,MIC,Escherichia coli K-12,50 µg/mL
same,MIC,[10],> 100 µg/mL
same,MIC,Proteus mirabilis P6,100 µg/mL
same,MIC,Proteus sp. P22,> 100 µg/mL
same,MIC,Providencia sp. P8,50 µg/mL
same,MIC,Sarcina lutea,0.05 µg/mL
same,MIC,Enterobacter sp. E8,100 µg/mL
same,MIC,[11],0.39 µg/mL
CC(O)C1C(=O)N2C(C(=O)O)=C(Sc3ccccc3)CC12 (stereo not drawn),MIC,[1],> 100 µg/mL
same,MIC,[2],0.1 µg/mL
same,MIC,[3],50 µg/mL
same,MIC,Proteus rettgeri P7,100 µg/mL
same,MIC,Proteus vulgaris GN76,> 100 µg/mL
same,MIC,[4],50 µg/mL
same,MIC,Serratia marcescens S18,100 µg/mL
same,MIC,[5],< 0.007 µg/mL
same,MIC,[6],12.5 µg/mL
same,MIC,Enterobacter cloacae 45,12.5 µg/mL
same,MIC,Alcaligenes faecalis A 1,1.56 µg/mL
same,MIC,[7],0.013 µg/mL
same,MIC,Serratia marcescens T55,100 µg/mL
same,MIC,[8],0.013 µg/mL
same,MIC,Escherichia coli RGN 823,25 µg/mL
same,MIC,[9],< 0.007 µg/mL
same,MIC,Escherichia coli K-12,3.13 µg/mL
same,MIC,[10],100 µg/mL
same,MIC,Proteus mirabilis P6,12.5 µg/mL
same,MIC,Proteus sp. P22,> 100 µg/mL
same,MIC,Providencia sp. P8,3.13 µg/mL
same,MIC,Sarcina lutea,< 0.007 µg/mL
same,MIC,Enterobacter sp. E8,3.13 µg/mL
same,MIC,[11],0.013 µg/mL
"CCC1C(=O)N2C(C(=O)O)=C(Sc3ncccn3)CC12 (stereo not drawn) [Example 61, 3-(2-pyrimidinylthio)-6-ethyl-7-oxo-1-azabicyclo[3.2.0]hept-2-ene-2-carboxylic acid]",MIC,[1],12.5 µg/mL
same,MIC,[2],0.024 µg/mL
same,MIC,[3],12.5 µg/mL
same,MIC,Proteus rettgeri P7,3.13 µg/mL
same,MIC,Proteus vulgaris GN76,6.25 µg/mL
same,MIC,[4],12.5 µg/mL
same,MIC,Serratia marcescens S18,12.5 µg/mL
same,MIC,[5],< 0.012 µg/mL
same,MIC,[6],12.5 µg/mL
same,MIC,Enterobacter cloacae 45,25 µg/mL
same,MIC,Alcaligenes faecalis A 1,0.2 µg/mL
same,MIC,[7],< 0.012 µg/mL
same,MIC,Serratia marcescens T55,25 µg/mL
same,MIC,[8],< 0.012 µg/mL
same,MIC,Escherichia coli RGN 823,3.13 µg/mL
same,MIC,[9],< 0.012 µg/mL
same,MIC,Escherichia coli K-12,1.56 µg/mL
same,MIC,[10],25 µg/mL
same,MIC,Proteus mirabilis P6,3.13 µg/mL
same,MIC,Proteus sp. P22,12.5 µg/mL
same,MIC,Providencia sp. P8,0.78 µg/mL
same,MIC,Sarcina lutea,< 0.012 µg/mL
same,MIC,Enterobacter sp. E8,3.13 µg/mL
same,MIC,[11],0.024 µg/mL

# Source: patent US4337199A, “Antibiotic β-lactam compounds, production thereof, and their use as antimicrobial agent” (Sanraku-Ocean Co., Ltd., priority 1978, dated 1982)
